Results published in patent US8673906B2, “Chromenone derivatives” (AstraZeneca AB, priority 2010, dated 2014).
Where two headings read alike, the source gives them in different places.

Molecular target: PI3Kβ (Homo sapiens (Human), UniProt P42338)
Assay: In vitro enzyme inhibition assay (Kinase Glo based enzyme activity assay)
Assay type: biochemical
Protocol: (a) In Vitro Enzyme Inhibition Assay
The inhibition of PI3Kβ, PI3Kα, PI3Kγ and PI3Kδ was evaluated in a Kinase Glo based enzyme activity assay using human recombinant enzymes. The assay measures depletion of ATP after incubation with enzyme, PIP2 and ATP plus compound. ATP at the end of the reaction is detected by addition of Kinase Glo reagent, in this the Ultra Glo™ luciferase (Promega) uses the ATP as a substrate to catalyze the mono-oxygenation of luciferin and the generation of light. A direct relationship exists between the luminescence measured with the Kinase-Glo Plus Reagent and the amount of ATP remaining in a completed kinase reaction and luminescence is inversely related to kinase activity. Twelve different compound concentrations were tested and raw data from the inhibition of PI3 Kb, PI3Kα, PI3Kγ and PI3Kδ was plotted versus inhibitor concentration.
Compounds in 100% DMSO were added to assay plates by acoustic dispensing. PI3Kβ was added in a Tris buffer (50 mM Tris pH7.4, 0.05% CHAPS, 2.1 mM DTT, and 10 mM MgCl2) and allowed to preincubate with compound for 20 minutes prior to addition of substrate solution containing PIP2 and ATP. The enzyme reaction was stopped after 80 minutes by the addition of Kinase Glo detection solution. Plates were left for 30 minutes at room temperature then read on a Pherastar Instrument (Luminescence ATP 384 program) setting gain on max well. The final concentration of DMSO, ATP and PIP2 in the assay were, 1%, 80 μM, and 80 μM respectively.
IC50 values were calculated using a log curve fitting to a non-linear regression package, fitting raw data to inhibitor concentration.

[1] = Test (a), human recombinant enzyme, read-out: PI3Kβ inhibition, IC50

PI3Kβ, sequence (P42338 whole entry): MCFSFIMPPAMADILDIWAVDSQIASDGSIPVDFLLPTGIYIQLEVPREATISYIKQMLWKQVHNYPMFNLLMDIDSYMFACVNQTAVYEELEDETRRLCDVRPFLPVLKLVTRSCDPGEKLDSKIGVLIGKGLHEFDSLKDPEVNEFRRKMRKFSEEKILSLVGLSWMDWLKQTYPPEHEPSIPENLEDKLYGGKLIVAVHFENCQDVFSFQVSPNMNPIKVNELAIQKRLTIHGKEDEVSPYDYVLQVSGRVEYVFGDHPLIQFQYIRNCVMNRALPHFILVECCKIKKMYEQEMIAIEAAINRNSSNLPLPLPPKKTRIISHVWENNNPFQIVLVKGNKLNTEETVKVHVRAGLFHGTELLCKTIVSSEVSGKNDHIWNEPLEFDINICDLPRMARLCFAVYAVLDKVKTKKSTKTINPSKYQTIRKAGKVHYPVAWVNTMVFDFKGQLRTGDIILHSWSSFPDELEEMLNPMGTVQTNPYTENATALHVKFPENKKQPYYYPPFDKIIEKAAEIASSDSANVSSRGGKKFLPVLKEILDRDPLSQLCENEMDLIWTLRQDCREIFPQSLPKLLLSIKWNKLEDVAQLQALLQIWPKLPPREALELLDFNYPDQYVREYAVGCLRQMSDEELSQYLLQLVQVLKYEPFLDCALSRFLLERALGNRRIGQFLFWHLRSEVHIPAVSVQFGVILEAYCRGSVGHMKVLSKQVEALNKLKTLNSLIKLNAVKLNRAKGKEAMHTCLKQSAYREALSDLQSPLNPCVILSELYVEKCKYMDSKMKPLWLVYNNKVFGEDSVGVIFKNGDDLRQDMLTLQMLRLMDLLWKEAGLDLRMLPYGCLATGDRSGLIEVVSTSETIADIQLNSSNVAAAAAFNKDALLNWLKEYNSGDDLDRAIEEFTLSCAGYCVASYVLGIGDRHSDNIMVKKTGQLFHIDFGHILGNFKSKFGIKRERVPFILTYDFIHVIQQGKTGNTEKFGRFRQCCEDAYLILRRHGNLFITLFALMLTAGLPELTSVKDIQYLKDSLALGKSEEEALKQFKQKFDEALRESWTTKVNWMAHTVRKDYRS
PI3Kβ, sequence (P27986 whole entry partner): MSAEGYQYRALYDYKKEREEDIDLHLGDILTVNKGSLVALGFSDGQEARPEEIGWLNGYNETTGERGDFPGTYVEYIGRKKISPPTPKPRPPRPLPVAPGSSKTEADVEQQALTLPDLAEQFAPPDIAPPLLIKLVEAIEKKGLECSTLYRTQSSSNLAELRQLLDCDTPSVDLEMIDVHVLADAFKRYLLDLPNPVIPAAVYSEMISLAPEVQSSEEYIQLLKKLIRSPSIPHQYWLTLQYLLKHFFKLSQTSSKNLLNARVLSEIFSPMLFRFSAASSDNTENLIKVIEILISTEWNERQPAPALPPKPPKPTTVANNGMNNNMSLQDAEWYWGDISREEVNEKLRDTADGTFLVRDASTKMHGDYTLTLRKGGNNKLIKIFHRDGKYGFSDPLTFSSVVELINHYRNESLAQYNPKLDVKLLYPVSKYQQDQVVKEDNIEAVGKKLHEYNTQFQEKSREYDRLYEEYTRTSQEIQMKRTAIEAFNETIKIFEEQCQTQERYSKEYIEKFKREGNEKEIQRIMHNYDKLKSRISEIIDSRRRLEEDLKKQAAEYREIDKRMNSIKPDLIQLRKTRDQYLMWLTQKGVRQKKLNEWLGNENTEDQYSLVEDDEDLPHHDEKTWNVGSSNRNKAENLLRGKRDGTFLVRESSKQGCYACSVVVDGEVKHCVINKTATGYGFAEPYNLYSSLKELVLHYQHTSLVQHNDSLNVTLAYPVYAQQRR

Row | IC50 [1] | IC50 (mean IC50 value calculated from a larger number of replicates, read-out: PI3Kβ inhibition, IC50 (value in brackets)) | SMILES
1 | 4 nM | – | Cc1ccc(F)cc1NC(C)c1cc(C(=O)N(C)C)cc2c(=O)cc(N3CCOCC3)oc12 (stereo not drawn) [Example 3.22, 8-(1-(5-fluoro-2-methylphenylamino)ethyl)-N,N-dimethyl-2-morpholino-4-oxo-4H-chromene-6-carboxamide]
2 | 43 nM | – | CC(c1cc(C(=O)N(C)C)cc2c(=O)cc(N3CCOCC3)oc12)N(C)c1ccccc1 (stereo not drawn) [Example 3.40, N,N-dimethyl-8-(1-(methyl(phenyl)amino)ethyl)-2-morpholino-4-oxo-4H-chromene-6-carboxamide]
3 | 4 nM | – | COCCN(C)C(=O)c1cc(C(C)Nc2cc(F)cc(F)c2)c2oc(N3CCOCC3)cc(=O)c2c1 (stereo not drawn) [Example 4.24, 8-(1-(3,5-difluorophenylamino)ethyl)-N-(2-methoxyethyl)-N-methyl-2-morpholino-4-oxo-4H-chromene-6-carboxamide]
4 | 12 nM | – | CC(c1cc(C(=O)N(C)C)cc2c(=O)cc(N3CCO[C@H](C)C3)oc12)N(C)c1cc(F)cc(F)c1 (stereo partly drawn) [Example 10.01, 8-(1-((3,5-difluorophenyl)(methyl)amino)ethyl)-N,N-dimethyl-2-((R)-2-methylmorpholino)-4-oxo-4H-chromene-6-carboxamide]
5 | – | 5 nM | CC(Nc1cccc(F)c1)c1cc(C(=O)N(C)C)cc2c(=O)cc(N3CCOCC3)oc12 (stereo not drawn) [Example 3.12, 8-(1-(3-fluorophenylamino)ethyl)-N,N-dimethyl-2-morpholino-4-oxo-4H-chromene-6-carboxamide]
6 | 8 nM | – | CC(c1cc(C(=O)N2CCC(O)CC2)cc2c(=O)cc(N3CCOCC3)oc12)N(C)c1cc(F)cc(F)c1 (single isomer, unassigned) [Example 7.01a, 8-(1-((3,5-difluorophenyl)(methyl)amino)ethyl)-6-(4-hydroxypiperidine-1-carbonyl)-2-morpholino-4H-chromen-4-one]
7 | 4 nM | – | Cc1ccc(Cl)cc1NC(C)c1cc(C(=O)N(C)C)cc2c(=O)cc(N3CCOCC3)oc12 (stereo not drawn) [Example 3.28, 8-(1-(5-chloro-2-methylphenylamino)ethyl)-N,N-dimethyl-2-morpholino-4-oxo-4H-chromene-6-carboxamide]
8 | 11 nM | – | CC(c1cc(C(=O)N(C)C)cc2c(=O)cc(N3CCOCC3)oc12)N(C)c1ccc(F)c(Cl)c1 (stereo not drawn) [Example 3.08, 8-(1-((3-chloro-4-fluorophenyl)(methyl)amino)ethyl)-N,N-dimethyl-2-morpholino-4-oxo-4H-chromene-6-carboxamide]
9 | 21 nM | – | CC(Nc1cc(F)cc(F)c1)c1cc(C(=O)N(C)C)cc2c(=O)cc(N3CCOC[C@@H]3C)oc12 (stereo partly drawn) [Example 11.00, 8-(1-(3,5-difluorophenylamino)ethyl)-N,N-dimethyl-2-((S)-3-methylmorpholino)-4-oxo-4H-chromene-6-carboxamide]
10 | 8 nM | – | CC(Nc1c(F)ccc(Cl)c1F)c1cc(C(=O)N(C)C)cc2c(=O)cc(N3CCOCC3)oc12 (stereo not drawn) [Example 3.32, 8-(1-(3-chloro-2,6-difluorophenylamino)ethyl)-N,N-dimethyl-2-morpholino-4-oxo-4H-chromene-6-carboxamide]
11 | 4 nM | – | CC(Nc1cc(F)cc(F)c1)c1cc(C(=O)N2CCN(C)CC2)cc2c(=O)cc(N3CCOCC3)oc12 (stereo not drawn) [Example 4.03, 8-(1-(3,5-difluorophenylamino)ethyl)-6-(4-methylpiperazine-1-carbonyl)-2-morpholino-4H-chromen-4-one]
12 | 11 nM | – | CC(c1cc(C(=O)N(C)CCN(C)C)cc2c(=O)cc(N3CCOCC3)oc12)N(C)c1ccc(F)cc1 (stereo not drawn) [Example 3.02, N-(2-(dimethylamino)ethyl)-8-(1-((4-fluorophenyl)(methyl)amino)ethyl)-N-methyl-2-morpholino-4-oxo-4H-chromene-6-carboxamide]
13 | 9 nM | – | CC(Nc1c(F)ccc(F)c1F)c1cc(C(=O)N(C)C)cc2c(=O)cc(N3CCOCC3)oc12 (stereo not drawn) [Example 3.27, N,N-dimethyl-2-morpholino-4-oxo-8-(1-(2,3,6-trifluorophenylamino)ethyl)-4H-chromene-6-carboxamide]
14 | 5 nM | – | CC(Nc1cc(F)cc(F)c1)c1cc(C(=O)N2CCCCC2)cc2c(=O)cc(N3CCOCC3)oc12 (stereo not drawn) [Example 4.10, 8-(1-(3,5-difluorophenylamino)ethyl)-2-morpholino-6-(piperidine-1-carbonyl)-4H-chromen-4-one]
15 | 7 nM | – | CC(c1cc(C(=O)N2CCC[C@@H]2CO)cc2c(=O)cc(N3CCOCC3)oc12)N(C)c1cc(F)cc(F)c1 (stereo partly drawn) [Example 5.03, 8-(1-((3,5-difluorophenyl)(methyl)amino)ethyl)-6-((R)-2-(hydroxymethyl)pyrrolidine-1-carbonyl)-2-morpholino-4H-chromen-4-one]
16 | 6 nM | – | CC(Nc1cc(F)cc(F)c1F)c1cc(C(=O)N(C)C)cc2c(=O)cc(N3CCOCC3)oc12 (stereo not drawn) [Example 3.13, N,N-dimethyl-2-morpholino-4-oxo-8-(1-(2,3,5-trifluorophenylamino)ethyl)-4H-chromene-6-carboxamide]
17 | 23 nM | – | COCCCNC(=O)c1cc(C(C)Nc2cc(F)cc(F)c2)c2oc(N3CCOCC3)cc(=O)c2c1 (stereo not drawn) [Example 4.19, 8-(1-(3,5-difluorophenylamino)ethyl)-N-(3-methoxypropyl)-2-morpholino-4-oxo-4H-chromene-6-carboxamide]
18 | 4 nM | – | CC(Nc1cc(F)cc(F)c1)c1cc(C(=O)N2CCCCCC2)cc2c(=O)cc(N3CCOCC3)oc12 (stereo not drawn) [Example 4.06, 6-(azepane-1-carbonyl)-8-(1-(3,5-difluorophenylamino)ethyl)-2-morpholino-4H-chromen-4-one]
19 | 3 nM | – | CC(Nc1cc(F)cc(F)c1)c1cc(C(=O)NCC2CC2)cc2c(=O)cc(N3CCOCC3)oc12 (stereo not drawn) [Example 4.23, N-(cyclopropylmethyl)-8-(1-(3,5-difluorophenylamino)ethyl)-2-morpholino-4-oxo-4H-chromene-6-carboxamide]
20 | 5 nM | – | CC(Nc1cc(F)cc(F)c1)c1cc(C(=O)N2CCC[C@@H]2CO)cc2c(=O)cc(N3CCOCC3)oc12 (stereo partly drawn) [Example 4.20, 8-(1-(3,5-difluorophenylamino)ethyl)-6-((R)-2-(hydroxymethyl)pyrrolidine-1-carbonyl)-2-morpholino-4H-chromen-4-one]
21 | 4 nM | – | CC(Nc1cc(F)cc(F)c1F)c1cc(C(=O)N(C)C)cc2c(=O)cc(N3CCOCC3)oc12 (single isomer, unassigned; (-)) [Example 3.13b, (−)-N,N-dimethyl-2-morpholino-4-oxo-8-(1-(2,3,5-trifluorophenylamino)ethyl)-4H-chromene-6-carboxamide]
22 | 212 nM | – | COc1ccc(C#N)cc1NC(C)c1cc(C(=O)N(C)C)cc2c(=O)cc(N3CCOCC3)oc12 (stereo not drawn) [Example 3.25, 8-(1-(5-cyano-2-methoxyphenylamino)ethyl)-N,N-dimethyl-2-morpholino-4-oxo-4H-chromene-6-carboxamide]
23 | 4 nM | – | CC(Nc1cc(F)cc(F)c1)c1cc(C(=O)NCCF)cc2c(=O)cc(N3CCOCC3)oc12 (stereo not drawn) [Example 4.18, 8-(1-(3,5-difluorophenylamino)ethyl)-N-(2-fluoroethyl)-2-morpholino-4-oxo-4H-chromene-6-carboxamide]
24 | 4 nM | – | C#Cc1cc(F)cc(NC(C)c2cc(C(=O)N(C)C)cc3c(=O)cc(N4CCOCC4)oc23)c1 (stereo not drawn) [Example 3.34, 8-(1-(3-ethynyl-5-fluorophenylamino)ethyl)-N,N-dimethyl-2-morpholino-4-oxo-4H-chromene-6-carboxamide]
25 | 4 nM | – | CNC(=O)c1cc(C(C)Nc2cc(F)cc(F)c2)c2oc(N3CCOCC3)cc(=O)c2c1 (stereo not drawn) [Example 4.22, 8-(1-(3,5-difluorophenylamino)ethyl)-N-methyl-2-morpholino-4-oxo-4H-chromene-6-carboxamide]
26 | 4 nM | – | CC(Nc1cc(F)ccc1Cl)c1cc(C(=O)N(C)C)cc2c(=O)cc(N3CCOCC3)oc12 (stereo not drawn) [Example 3.26, 8-(1-(2-chloro-5-fluorophenylamino)ethyl)-N,N-dimethyl-2-morpholino-4-oxo-4H-chromene-6-carboxamide]
27 | 10 nM | – | CC(Nc1cccc(C#N)c1)c1cc(C(=O)N(C)C)cc2c(=O)cc(N3CCOCC3)oc12 (stereo not drawn) [Example 3.18, 8-(1-(3-cyanophenylamino)ethyl)-N,N-dimethyl-2-morpholino-4-oxo-4H-chromene-6-carboxamide]
28 | 17 nM | – | CC(c1cc(C(=O)N(C)C)cc2c(=O)cc(N3CCOCC3)oc12)N(C)c1cc(F)c(F)c(F)c1 (stereo not drawn) [Example 3.38, N,N-dimethyl-8-(1-(methyl(3,4,5-trifluorophenyl)amino)ethyl)-2-morpholino-4-oxo-4H-chromene-6-carboxamide]

Row | SMILES | IC50 [1] | IC50 (mean IC50 value calculated from a larger number of replicates, read-out: PI3Kβ inhibition, IC50 (value in brackets))
29 | CC(Nc1ccc(F)cc1)c1cc(C(=O)N(C)C)cc2c(=O)cc(N3CCO[C@H](C)C3)oc12 (stereo partly drawn) [Example 9.0, 8-(1-(4-fluorophenylamino)ethyl)-N,N-dimethyl-2-((R)-2-methylmorpholino)-4-oxo-4H-chromene-6-carboxamide] | 5 nM | –
30 | CC(Nc1cc(F)cc(F)c1)c1cc(C(=O)N(C)C)cc2c(=O)cc(N3CCO[C@@H](C)C3)oc12 (single isomer, unassigned) [Example 9.02b] | 7 nM | –
